# Data published in US20150056166A1, “FLAVONE DERIVATIVES AND THEIR USE” (Twincore GmbH, priority 2012, published 2015).
# pIC50: −log10 of the molar value.
# Tested on: JcR-2a virus
# Experiment: microbe, parasite or virus in culture
# Assay type: cell-based, HCV
# Method: Combined effects of CsA on BJ486K and vice versa were analysed by inoculation of Huh7-Lunet/CD81 cells with JcR-2a virus in the presence of given drugs and determination of luciferase activity 72 h later. Mean values of three independent experiments each conducted in triplicates including the standard deviations are given. Data are normalized for values determined in mock treated controls.
# Huh7-Lunet/CD81 cells were infected with reporter virus particles essentially as described recently (Koutsoudakis et al., J. Virol. 2006; 80: 5308-5320). Briefly, for inoculation with firefly luciferase reporter virus particles (Luc-Jc1) and Renilla reporter viruses (JcR-2a (Reiss et al., Cell host & microbe 2011; 9: 32-45) and GT1-6, see plasmids below), Huh7-Lunet/CD81 cells were seeded at a density of 6×10 e4 cells per well of a 12-well plate or 6.6×10 e3 cells per well of a 96-well plate 24 h prior to inoculation. If not stated otherwise, the virus particles were pretreated with the inhibitors for 1 h at 37° C. Cells were inoculated for 4 h at 37° C., viral inoculum was replaced by fresh culture fluid and infection was quantified 48 h or 72 h after virus inoculation using luciferase assays. To this end, cells were washed once with PBS and in the case of the Luc-Jc1 infected cells, lysed directly on the plate with 350 μl of cold lysis buffer (0.1% Triton-X100, 25 mM glycylglycine, 15 mM MgSO4, 4 mM EGTA and 1 mM dithiothreitol, pH 7.8) and after addition of the luciferase solution (200 μM luciferin, 25 mM glycylglycine, pH8) measured for 20 s in a luminometer (Lumat LB9507, Berthold, Freiburg, Germany). Cells infected with the renilla reporter virus were lysed in 200 μl lysis buffer (Promega, Mannheim, Germany) and after addition of the luciferase substrate (1 μM of coelenterazin (P. J. K., Kleinblittersdorf, Germany) in PBS) measured for 1 s in a luminometer (Lumat LB9507, Berthold, Freiburg, Germany). The indicated IC50 values were determined by using Sigma Plot software (Systat Inc; San Jose; Calif.). […]
smiles,measurement,setting,value
"COc1ccc(-c2cc(=O)c3c(O)c(O)c(OC)cc3o2)cc1 [BJ486K, 5,6-Dihydroxy-7-methoxy-2-(4-methoxy-phenyl)-chromen-4-one]",decrease of the IC50 of BJ486K,100 ng/mL of CsA,ca. 3 fold
same,IC90,"Hepatitis C virus, Huh-7, 72 h",4370 nM
same,pIC50,"Hepatitis C virus, Huh-7, read-out: IC50 of BJ486K",~6.40
